Test: Safety and tolerability (adverse events, laboratory, vital signs, ECG) in phase 1a trial in healthy subjects
Assay type: in vivo, human
Experimental: The primary objective was to assess the safety and tolerability of single (SAD) and multiple (MAD) ascending doses of anle138b to healthy subjects in the fasted state and to assess the safety and tolerability of single doses of anle138b in both the fasted and fed state (FES). To this end, adverse events (AEs), clinical laboratory tests, vital signs, electrocardiograms (ECGs), QT interval corrected for heart rate using Fridericia's formula (QTcF), and physical examination findings were recorded. Participants were instructed to report all potential AEs immediately to the on-site personnel and were assessed by a physician before each dose of study drug. In addition, a physical examination of the relevant body system was performed in the event that a subject reports any new symptoms or AEs. AEs were defined following standard criteria, which are described in the protocol. The detailed parameters and sampling schedule regarding haematology, clinical chemistry, ECG, blood pressure, heart rate and PK are provided in the supplement (supplement 3). Any clinically significant abnormality in these assessments, including changes from baseline, were needed to be reported as an AE.
AEs and medications were coded using the Medical Dictionary for Regulatory Activities (MedDRA) (v22·1). An independent coding review was performed within the Data Sciences department. Clinical chemistry and haematology data (and other safety laboratory data) were collected by a central laboratory (The Doctors Laboratory) and transferred electronically to Quotient Sciences. The list of parameters is provided in supplement 2. All demographic details and sample dates were cross-referenced with the corresponding data on the study database. Data was monitored by an external entity (Wirral Clinical Consultancy Ltd, Heswall, UK). Monitoring included the conduct of a site initiation visit, interim monitoring visits and a close-out visit. The database was closed after all queries had been resolved.
The study was exploratory and no formal sample size calculation was made. Based on experience from previous studies of similar design, eight subjects per cohort were enrolled for parts 1 (SAD) and 2 (MAD) and a total of twelve subjects for part 3 (FES). Populations and analysis sets were determined for safety and PK data after database lock using the criteria defined in the reporting and analysis plan. The safety population and safety analysis set for SAD and MAD were defined after database lock but prior to study unblinding. Statistical analysis and production of summary tables, figures and listings for all safety data (AEs, vital signs, ECGs and safety laboratory assessments) including changes from baseline as required in this study were performed using the statistical package SAS (v9·4). Additional statistics was provided for PK-related data including coefficient of variation (CV%), geometric mean, geometric CV%, and the number n of subjects that were included in the natural logarithmic transformation). In SAD and MAD, dose proportionality was assessed. Formal statistical analysis was performed on the log-transformed PK parameters AUC(0-last), AUC(0-inf), and Cmax for SAD (day 1), and AUC(0-tau) and Cmax for MAD (day 1 and day 7) to assess dose proportionality using the following power model: loge (AUC or Cmax) = µ + βx loge (dose). The estimate obtained for β is a measure of dose proportionality. The estimate of β together with its 90% confidence interval (CI) (βl, βu) was used to quantify the degree of non-proportionality. In MAD, formal statistical analysis was performed on the PK parameters AUC(0-tau) and Cmax to assess dose accumulation. Log-transformed AUC(0-tau) and Cmax was subjected to a mixed-effects model with treatment (dose level), day (day 1 or 7) and treatment-by-day interaction as fixed effects and subject as a random effect. […]

[1] = Food effect cohort, anle138b 150 mg fed and fasted, N=12
[2] = MAD cohorts, anle138b 100-300 mg QD 7 days, N=18
[3] = SAD cohorts, anle138b 50-300 mg single dose, N=24

Brc1cccc(-c2cc(-c3ccc4c(c3)OCO4)n[nH]2)c1 [anle138b, 3-(1,3-benzodioxol-5-yl)-5-(3-bromophenyl)-1H-pyrazole]
Dose dependency of AE reporting (50 to 300 mg): no dose dependency
Adverse events by attribution to study treatment: Definite, number of events (Food effect cohort, N=12): 0
Adverse events by attribution to study treatment: Not related, number of events (%) (Food effect cohort, N=12): 6 (100)
Adverse events by attribution to study treatment: Possible, number of events (%) (Food effect cohort, N=12): 0
Adverse events by attribution to study treatment: Probable, number of events (Food effect cohort, N=12): 0
Adverse events by grade: Mild, number of events (%) (Food effect cohort, N=12): 6 (100)
Adverse events by grade: Moderate, number of events (%) (Food effect cohort, N=12): 0
Adverse events by outcome: Recovered, number of events (%) (Food effect cohort, N=12): 6 (100)
Eye disorders (ocular hyperaemia, vision blurred): number of events [patients affected %] (Food effect cohort, N=12): 0
Gastrointestinal disorders (diarrhea, nausea): number of events [patients affected %] (Food effect cohort, N=12): 0
General disorders and administration site conditions (Chest discomfort, fatigue, medical device site reaction): number of events [patients affected %] (Food effect cohort, N=12): 1 [8·3]
Infections and infestations (Nasopharyngitis, rhinitis): number of events [patients affected %] (Food effect cohort, N=12): 0
Injury, poisoning and procedural complications (procedural dizziness): number of events [patients affected %] (Food effect cohort, N=12): 2 [16·7]
Musculosceletal and connective tissue disorders (Back pain): number of events [patients affected %] (Food effect cohort, N=12): 0
Nervous system disorders (headache, paraestesia): number of events [patients affected %] (Food effect cohort, N=12): 3 [25]
Psychiatric disorders (abnormal dreams): number of events [patients affected %] (Food effect cohort, N=12): 0
Number of patients with adverse event(s) [%] [1]: 5 [41·7]
Number of patients with no adverse event [%] [1]: 7 [58·3]
Adverse events by attribution to study treatment: Definite, number of events (MAD cohorts, N=18): 0
Adverse events by attribution to study treatment: Not related, number of events (%) (MAD cohorts, N=18): 9 (90)
Adverse events by attribution to study treatment: Possible, number of events (%) (MAD cohorts, N=18): 1 (10)
Adverse events by attribution to study treatment: Probable, number of events (MAD cohorts, N=18): 0
Adverse events by grade: Mild, number of events (%) (MAD cohorts, N=18): 9 (90)
Adverse events by grade: Moderate, number of events (%) (MAD cohorts, N=18): 1 (10)
Adverse events by outcome: Recovered, number of events (%) (MAD cohorts, N=18): 10 (100)
Eye disorders (ocular hyperaemia, vision blurred): number of events [patients affected %] (MAD cohorts, N=18): 1 [5·6]
Gastrointestinal disorders (diarrhea, nausea): number of events [patients affected %] (MAD cohorts, N=18): 1 [5·6]
General disorders and administration site conditions (Chest discomfort, fatigue, medical device site reaction): number of events [patients affected %] (MAD cohorts, N=18): 1 [5·6]
Infections and infestations (Nasopharyngitis, rhinitis): number of events [patients affected %] (MAD cohorts, N=18): 1 [5·6]
Injury, poisoning and procedural complications (procedural dizziness): number of events [patients affected %] (MAD cohorts, N=18): 0
Musculosceletal and connective tissue disorders (Back pain): number of events [patients affected %] (MAD cohorts, N=18): 2 [11·1]
Nervous system disorders (headache, paraestesia): number of events [patients affected %] (MAD cohorts, N=18): 4 [16·7]
Psychiatric disorders (abnormal dreams): number of events [patients affected %] (MAD cohorts, N=18): 0
Number of patients with adverse event(s) [%] [2]: 6 [33·3]
Number of patients with no adverse event [%] [2]: 12 [66·7]
Moderate AE (MAD part, 100 mg anle138b): an episode of back pain
AE considered possibly related to the study medication (MAD part, 200 mg anle138b, assessed prior to unblinding): one event of headache
Adverse events by attribution to study treatment: Definite, number of events (SAD cohorts, N=24): 0
Adverse events by attribution to study treatment: Not related, number of events (%) (SAD cohorts, N=24): 5 (100)
Adverse events by attribution to study treatment: Possible, number of events (%) (SAD cohorts, N=24): 0
Adverse events by attribution to study treatment: Probable, number of events (SAD cohorts, N=24): 0
Adverse events by grade: Mild, number of events (%) (SAD cohorts, N=24): 5 (100)
Adverse events by grade: Moderate, number of events (%) (SAD cohorts, N=24): 0
Adverse events by outcome: Recovered, number of events (%) (SAD cohorts, N=24): 5 (100)
Eye disorders (ocular hyperaemia, vision blurred): number of events [patients affected %] (SAD cohorts, N=24): 1 [4·2]
Gastrointestinal disorders (diarrhea, nausea): number of events [patients affected %] (SAD cohorts, N=24): 0
General disorders and administration site conditions (Chest discomfort, fatigue, medical device site reaction): number of events [patients affected %] (SAD cohorts, N=24): 0
Infections and infestations (Nasopharyngitis, rhinitis): number of events [patients affected %] (SAD cohorts, N=24): 1 [4·2]
Injury, poisoning and procedural complications (procedural dizziness): number of events [patients affected %] (SAD cohorts, N=24): 0
Musculosceletal and connective tissue disorders (Back pain): number of events [patients affected %] (SAD cohorts, N=24): 1 [4·2]
Nervous system disorders (headache, paraestesia): number of events [patients affected %] (SAD cohorts, N=24): 2 [8·3]
Psychiatric disorders (abnormal dreams): number of events [patients affected %] (SAD cohorts, N=24): 0
Number of patients with adverse event(s) [%] [3]: 4 [16·7]
Number of patients with no adverse event [%] [3]: 20 [83·3]
Tolerability and compound-related side effects (all tested doses (up to 300 mg)): excellent tolerability and no compound-related side effects
Changes in safety assessments (laboratory values, vital signs, physical examinations, ECG) (any subject included in the trial): no clinically significant individual changes from baseline or notable trends

Source: publication PMC9065877, “Safety, tolerability and pharmacokinetics of the oligomer modulator anle138b with exposure levels sufficient for therapeutic efficacy in a murine Parkinson model: A randomised, double-blind, placebo-controlled phase 1a trial” (EBioMedicine, 2022)
